What was measured:
EVSA-T cells = experiment: Cell proliferation assay (CellTiter-Glo), EVSA-T; type: cell-based; settings: Homo sapiens, EVSA-T, 72 h, 72 h treatment, Celltiter-Glo luminescence
In short: (§1)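 Compounds tested over ten concentrations ([…]) for 72 h on EVSA-T cells in MEM/10% FBS and MDA-MB-231 cells in RPMI-1640/10% FBS, seeded at 10000/well. Luminescent CellTiter-Glo readout; IC50 fitted after normalisation to controls.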

MDA-MB-231 cells = experiment: Cell proliferation assay (CellTiter-Glo), MDA-MB-231; type: cell-based; settings: Homo sapiens, MDA-MB-231, 72 h, 72 h treatment, Celltiter-Glo luminescence
In short: as §1

SMILES	IC50 (EVSA-T cells) [µM]	IC50 (MDA-MB-231 cells) [µM]
C[C@@H]1CN(CC(=O)N2CC(C)(C)c3c2cc(Cc2ccc(F)cc2)c2nn([C@H]4CCOC4)c(=O)n32)[C@@H](CN2CCOC[C@H]2C)CN1 [Compound 218, 4-(4-fluorobenzyl)-8,8-dimethyl-6-(2-((2R,5R)-5-methyl-2-(((R)-3-methylmorpholino)methyl)piperazin-1-yl)acetyl)-2-((S)-tetrahydrofuran-3-yl)-2,6,7,8-tetrahydro-1H-pyrrolo[2,3-e][1,2,4]triazolo[4,3-a]pyridin-1-one]	0.002	0.047
C[C@@H]1CN(CC(=O)N2CC(C)(C)c3c2cc(Cc2ccc(F)cc2)c2nc(C(F)(F)F)cn32)[C@@H](CN2CCN(CC(F)(F)F)C[C@H]2C)CN1 [Compound 179, 1-(4-(4-fluorobenzyl)-8,8-dimethyl-2-(trifluoromethyl)-7,8-dihydro-6H-imidazo[1,2-a]pyrrolo[2,3-e]pyridin-6-yl)-2-((2R,5R)-5-methyl-2-(((R)-2-methyl-4-(2,2,2-trifluoroethyl)piperazin-1-yl)methyl)piperazin-1-yl)ethan-1-one]	0.015	0.18
Cc1ncc(Cc2cc3c(n4ncnc24)C(C)(C)CN3C(=O)CN2C[C@@H](C)NC[C@@H]2CN2CCOC[C@H]2C)s1 [Compound 132, 1-(8,8-dimethyl-4-((2-methylthiazol-5-yl)methyl)-7,8-dihydro-6H-pyrrolo[2,3-e][1,2,4]triazolo[1,5-a]pyridin-6-yl)-2-((2R,5R)-5-methyl-2-(((R)-3-methylmorpholino)methyl)piperazin-1-yl)ethan-1-one]	0.056	0.22
C[C@@H]1CN(CC(=O)N2CC(C)(C)c3c2cc(Cc2ccc(F)cc2)c2ccnn32)[C@@H](CN2CCOC[C@H]2C)CN1 [Compound 148, 1-(4-(4-fluorobenzyl)-8,8-dimethyl-7,8-dihydro-6H-pyrazolo[1,5-a]pyrrolo[2,3-e]pyridin-6-yl)-2-((2R,5R)-5-methyl-2-(((R)-3-methylmorpholino)Methyl)piperazin-1-yl)ethan-1-one]	0.006	0.1
C[C@@H]1CN(CC(=O)N2CC(C)(C)c3c2cc(Cc2ccc(F)cc2)c2nc(C(F)(F)F)cn32)[C@@H](CN2CCOC[C@H]2C)CN1 [Compound 116, 1-(4-(4-fluorobenzyl)-8,8-dimethyl-2-(trifluoromethyl)-7,8-dihydro-6H-imidazo[1,2-a]pyrrolo[2,3-e]pyridin-6-yl)-2-((2R,5R)-5-methyl-2-(((R)-3-methylmorpholino)methyl)piperazin-1-yl)ethan-1-one]	0.019	0.093
C[C@@H]1CN(CC(=O)N2CC(C)(C)c3c2cc(Cc2ccc(F)cc2)c2c(C#N)cnn32)[C@@H](CN2CCOC[C@H]2C)CN1 [Compound 105, 4-(4-fluorobenzyl)-8,8-dimethyl-6-(2-((2R,5R)-5-methyl-2-(((R)-3-methylmorpholino)methyl)piperazin-1-yl)acetyl)-7,8-dihydro-6H-pyrazolo[1,5-a]pyrrolo[2,3-e]pyridine-3-carbonitrile]	0.009	0.1
C[C@@H]1CN(CC(=O)N2CC(C)(C)c3c2cc(Cc2ccc(F)cc2F)c2nn(C[C@H]4COCCO4)c(=O)n32)[C@@H](CN2CCOC[C@H]2C)CN1 [Compound 285, 2-(((S)-1,4-dioxan-2-yl)methyl)-4-(2,4-difluorobenzyl)-8,8-dimethyl-6-(2-((2R,5R)-5-methyl-2-(((R)-3-methylmorpholino)methyl)piperazin-1-yl)acetyl)-2,6,7,8-tetrahydro-1H-pyrrolo[2,3-e][1,2,4]triazolo[4,3-a]pyridin-1-one]	0.0046	0.026
C[C@@H]1CN(CC(=O)N2CC(C)(C)c3c2cc(Cc2ccc(F)cc2)c2c(C(N)=O)cnn32)[C@@H](CN2CCOC[C@H]2C)CN1 [Compound 149, 4-(4-fluorobenzyl)-8,8-dimethyl-6-(2-((2R,5R)-5-methyl-2-(((R)-3-methylmorpholino)methyl)piperazin-1-yl)acetyl)-7,8-dihydro-6H-pyrazolo[1,5-a]pyrrolo[2,3-e]pyridine-3-carboxamide]	0.007	0.1
C[C@@H]1CN(CC(=O)N2CC(C)(C)c3c2cc(Cc2ccc(F)cc2)c2nn(CC4(O)CC4)c(=O)n32)[C@@H](CN2CCOC[C@H]2C)CN1 [Compound 240, 4-(4-fluorobenzyl)-2-((1-hydroxycyclopropyl)methyl)-8,8-dimethyl-6-(2-((2R,5R)-5-methyl-2-(((R)-3-methylmorpholino)methyl)piperazin-1-yl)acetyl)-2,6,7,8-tetrahydro-1H-pyrrolo[2,3-e][1,2,4]triazolo[4,3-a]pyridin-1-one]	0.0059	0.025
C[C@@H]1CN(CC(=O)N2CC(C)(C)c3c2cc(Cc2ccc(F)cc2)c2nc(N4CCOCC4)nn32)[C@@H](CN2CCOC[C@H]2C)CN1 [Compound 143, 1-(4-(4-fluorobenzyl)-8,8-dimethyl-2-morpholino-7,8-dihydro-6H-pyrrolo[2,3-e][1,2,4]triazolo[1,5-a]pyridin-6-yl)-2-((2R,5R)-5-methyl-2-(((R)-3-methylmorpholino)methyl)piperazin-1-yl)ethan-1-one]	0.003	0.043
C[C@@H]1CN(CC(=O)N2CC(C)(C)c3c2cc(Cc2ccc(F)cc2)c2nc(CN(C)C)nn32)[C@@H](CN2CCOC[C@H]2C)CN1 [Compound 212, 1-(2-((dimethylamino)methyl)-4-(4-fluorobenzyl)-8,8-dimethyl-7,8-dihydro-6H-pyrrolo[2,3-e][1,2,4]triazolo[1,5-a]pyridin-6-yl)-2-((2R,5R)-5-methyl-2-(((R)-3-methylmorpholino)methyl)piperazin-1-yl)ethan-1-one]	0.007	0.041
Cc1nc2c(Cc3ccc(F)cc3)cc3c(n2c1C)C(C)(C)CN3C(=O)CN1C[C@@H](C)NC[C@@H]1CN1CCOC[C@H]1C [Compound 109, 1-(4-(4-fluorobenzyl)-1,2,8,8-tetramethyl-7,8-dihydro-6H-imidazo[1,2-a]pyrrolo[2,3-e]pyridin-6-yl)-2-((2R,5R)-5-methyl-2-(((R)-3-methylmorpholino)methyl)piperazin-1-yl)ethan-1-one]	0.009	0.061
C[C@@H]1CN(CC(=O)N2CC(C)(C)c3c2cc(Cc2ccc(F)cc2)c2nn(CC(C)(C)O)c(=O)n32)[C@@H](CN2CCOC[C@H]2C)CN1 [Compound 231, 4-(4-fluorobenzyl)-2-(2-hydroxy-2-methylpropyl)-8,8-dim ethyl-6-(2-((2R,5R)-5-methyl-2-(((R)-3-methylmorpholino)methyl)piperazin-1-yl)acetyl)-2,6,7,8-tetrahydro-1H-pyrrolo[2,3-e][1,2,4]triazolo[4,3-a]pyridin-1-one]	0.004	0.028
C[C@@H]1CN(CC(=O)N2CC(C)(C)c3c2cc(Cc2ccc(F)cc2)c2nn(Cc4ncccc4F)c(=O)n32)[C@@H](CN2CCOC[C@H]2C)CN1 [Compound 220, 4-(4-fluorobenzyl)-2-((3-fluoropyridin-2-yl)methyl)-8,8-di methyl-6-(2-((2R,5R)-5-methyl-2-(((R)-3-methylmorpholino)methyl)piperazin-1-yl)acetyl)-2,6,7,8-tetrahydro-1H-pyrrolo[2,3-e][1,2,4]triazolo[4,3-a]pyridin-1-one]	0.002	0.068
C[C@@H]1CN(CC(=O)N2CC(C)(C)c3c2cc(Cc2ccc(F)cc2)c2n[nH]c(=O)n32)[C@@H](CN2CCOC[C@H]2C)CN1 [Compound 152, 4-(4-fluorobenzyl)-8,8-dimethyl-6-(2-((2R,5R)-5-methyl-2-(((R)-3-methylmorpholino)methyl)piperazin-1-yl)acetyl)-2,6,7,8-tetrahydro-1H-pyrrolo[2,3-e][1,2,4]triazolo[4,3-a]pyridin-1-one]	0.03	0.17
C[C@@H]1CN(CC(=O)N2CC(C)(C)c3c2cc(Cc2ccc(F)cc2)c2nn(CC(C)(C)O)c(=O)n32)[C@@H](CN2CCN(CC(F)(F)F)C[C@H]2C)CN1 [Compound 266, 4-(4-fluorobenzyl)-2-(2-hydroxy-2-methylpropyl)-8,8-dim ethyl-6-(2-((2R,5R)-5-methyl-2-(((R)-2-methyl-4-(2,2,2-trifluoroethyl)piperazin-1-yl)methyl)piperazin-1-yl)acetyl)-2,6,7,8-tetrahydro-1H-pyrrolo[2,3-e][1,2,4]triazolo[4,3-a]pyridin-1-one]	0.0049	0.016
C[C@@H]1CN(CC(=O)N2CC(C)(C)c3c2cc(Cc2ccc(F)cc2)c2nn(Cc4cccc(F)n4)c(=O)n32)[C@@H](CN2CCOC[C@H]2C)CN1 [Compound 219, 4-(4-fluorobenzyl)-2-((6-fluoropyridin-2-yl)methyl)-8,8-di methyl-6-(2-((2R,5R)-5-methyl-2-(((R)-3-methylmorpholino)methyl)piperazin-1-yl)acetyl)-2,6,7,8-tetrahydro-1H-pyrrolo[2,3-e][1,2,4]triazolo[4,3-a]pyridin-1-one]	0.002	0.047
C[C@@H]1CN(CC(=O)N2CC(C)(C)c3c2cc(Cc2ccc(F)cc2F)c2ncnn32)[C@@H](CN2CCOC[C@H]2C)CN1 [Compound 40, 1-(4-(2,4-difluorobenzyl)-8,8-dimethyl-7,8-dihydro-6H-pyrrolo[2,3-e][1,2,4]triazolo[1,5-a]pyridin-6-yl)-2-((2R,5R)-5-methyl-2-(((R)-3-methylmorpholino)methyl)piperazin-1-yl)ethan-1-one]	0.003	0.059
C[C@@H]1CN(CC(=O)N2CC(C)(C)c3c2cc(Cc2ccc(F)cc2)c2nc(C(=O)N(C)C)nn32)[C@@H](CN2CCOC[C@H]2C)CN1 [Compound 251, 4-(4-fluorobenzyl)-N,N,8,8-tetramethyl-6-(2-((2R,5R)-5-methyl-2-(((R)-3-methylmorpholino)methyl)piperazin-1-yl)acetyl)-7,8-dihydro-6H-pyrrolo[2,3-e][1,2,4]triazolo[1,5-a]pyridine-2-carboxamide]	0.0296	0.13
